Experimental data from the RepoRT retention time repository (doi:10.1021/acs.analchem.2c02893).

Assay: RP, Thermo Scientific Acclaim RSLC 120 C18, 100 × 2.1 mm, 2.2 µm, 30 °C, 0.2 mL/min, estimated dead time 1.1 min; A: 90% water + 10% methanol + 0.01% formic acid + 5 mM ammonium formate, pH 3.61; B: methanol + 0.01% formic acid + 5 mM ammonium formate, pH 3.61; gradient (min/%B) 0/1 1/1 2/39 13/99.9 15/99.9 15.1/1 20.1/1
Settings: stereoisomer not certain

SMILES | LC retention time
CCC(C)C1OC2(C=CC1C)CC1CC(CC=C(C)C(OC3CC(OC)C(OC4CC(OC)C(NC)C(C)O4)C(C)O3)C(C)C=CC=C3COC4C(O)C(C)=CC(C(=O)O1)C34O)O2 (configuration not stated) [Emamectin B1a] | 12.4 min
CN(C)C(CSS(=O)(=O)c1ccccc1)CSS(=O)(=O)c1ccccc1 [Bensultap] | 9.6 min
CN(C)c1ccccc1 [Dimethylanilin (N.N-)] | 6.26 min
CCC(NC)C(=O)c1ccc2c(c1)OCO2 (configuration not stated) [Butylone] | 4.34 min
CC1(C)C(C(=O)OC(C#N)c2cccc(Oc3ccccc3)c2)C1(C)C (configuration not stated) [Fenpropathrin] | 12.9 min
NC(=O)c1c(Cl)c(Cl)cc(C(=O)O)c1Cl | 3.88 min
COCC(=O)Nc1c(I)c(C(=O)NCC(O)CO)c(I)c(C(=O)N(C)CC(O)CO)c1I (configuration not stated) [Iopromid] | 3.38 min
CCOc1cc(CC(=O)NC(CC(C)C)c2ccccc2N2CCCCC2)ccc1C(=O)O (configuration not stated) [Repaglinide] | 11.9 min
CNC(C)C(O)c1ccc(O)cc1 (configuration not stated) [Synphrine-Methyl] | 2.05 min
CCOC(=O)CC(O)(CC(=O)OCC)C(=O)OCC [Triethylcitrate] | 6.94 min
Cc1c(NC=O)c(=O)n(-c2ccccc2)n1C [Antipyrine- 4-Formylamino] | 3.96 min
COc1cc2c(cc1OC)C13CCN4CC5=CCOC6CC(=O)N2C1C6C5CC43 (configuration not stated) [Brucine] | 4.21 min
O=C(O)C1=CC=C2N=NN=C2C1 [Benzotriazole-5-carboxylic acid] | 3.81 min
O=C(NC(=O)c1c(F)cccc1F)Nc1cc(Cl)c(F)c(Cl)c1F [Teflubenzuron] | 12.5 min
CC1(C)C(C=C(Cl)Cl)C1C(=O)OC(C#N)c1ccc(F)c(Oc2ccccc2)c1 (configuration not stated) [Cyfluthrin (Baythroid)] | 13 min
CC(C)(C)Nc1nc(N)[nH]c(=O)n1 [Terbuthylazine-desethyl-2-hydroxy] | 3.99 min
CCOc1ccccc1C(N)=O [Ethenzamide] | 5.68 min
Cc1c(Cl)cccc1Nc1ccccc1C(=O)O [Tolfenamic acid] | 11.9 min
CC(=O)OC1C=CC2C3Cc4ccc(O)c5c4C2(CCN3C)C1O5 (configuration not stated) [MAM (6-O-Monoacetylmorphine)] | 3.75 min
CCC1CCCC(OC2CCC(N(C)C)C(C)O2)C(C)C(=O)C2=CC3C(C=CC4CC(OC5OC(C)C(OC)C(OC)C5OC)CC43)C2CC(=O)O1 (configuration not stated) [Spinosyn A] | 11.2 min
COP(=O)(OC)OC(C)=CC(=O)OC(C)c1ccccc1 (configuration not stated) [Crotoxyphos] | 9.39 min

SMILES | LC retention time
CC(C)(C)C(O)C(Cc1ccc(Cl)cc1Cl)n1cncn1 (configuration not stated) [Diclobutrazol] | 10.7 min
CN(C)CCc1c[nH]c2ccc(O)cc12 [Bufotenin] | 2.82 min
CC(C)(ON=C(C(=O)NC1C(=O)N2C(C(=O)[O-])=C(C[n+]3ccccc3)CSC12)c1csc(N)n1)C(=O)O (configuration not stated) [Ceftazidime] | 3.38 min
COc1cc2nc(N3CCN(C(=O)c4ccco4)CC3)nc(N)c2cc1OC [Prazosin] | 5.34 min
CN1CCOC(c2ccccc2)c2ccccc2C1 (configuration not stated) [Nefopam] | 5.67 min
CC(Cc1ccccc1)NCCn1cnc2c1c(=O)n(C)c(=O)n2C (configuration not stated) [Fenethylline] | 5.06 min
CC(C)[N+](C)(CCOC(=O)C1c2ccccc2Oc2ccccc21)C(C)C [Propantheline (I+)] | 7.35 min
CCC(N)Cc1ccc2c(c1)OCO2 (configuration not stated) [BDB] | 4.73 min
CNCCCC1c2ccccc2C=Cc2ccccc21 [Protriptyline] | 7.99 min
CC(C)(C(=O)c1cccnc1)c1cccnc1 [Metyrapone] | 6.21 min
OCCOCCN1CCN(C2=Nc3ccccc3Sc3ccccc32)CC1 [Quetiapine] | 7.26 min
CCN(CC)CCOCCOC(=O)C(CC)(CC)c1ccccc1 [Oxeladin] | 8.04 min
CSC1=NC(C)(c2ccccc2)C(=O)N1Nc1ccccc1 (configuration not stated) [Fenamidone] | 9.22 min
O=C(c1cccc2ccccc12)c1cn(CCCCCF)c2ccccc12 [AM-2201] | 11.2 min
CC(CN1CCN(CCOCCO)CC1)CN1c2ccccc2Sc2ccccc21 (configuration not stated) [Dixyrazine] | 9.08 min
CC(C)N(C(=O)CS(=O)(=O)O)c1ccc(F)cc1 [Flufenacet-ESA] | 5.71 min
CCC1COC(Cn2cncn2)(c2ccc(Cl)cc2Cl)O1 (configuration not stated) [Etaconazole] | 10.2 min
CC(=O)Nc1c(C)n(C)n(-c2ccccc2)c1=O [Antipyrine- 4-Acetamido] | 3.94 min
CCCN(CCC)CCc1c[nH]c2ccccc12 [DPT] | 5.26 min
CCC1(C2OC(C3OC(O)(CO)C(C)CC3C)CC2C)CCC(C2(C)CCC3(CC(O)C(C)C(C(C)C(OC)C(C)C(=O)O)O3)O2)O1 (configuration not stated) [Monensin] | 13.8 min
CCC(=O)OC(Cc1ccccc1)(c1ccccc1)C(C)CN(C)C (configuration not stated) [Dextropropoxyphene] | 7.73 min

SMILES | LC retention time
CNP(=O)(OC)Oc1ccc(C(C)(C)C)cc1Cl (configuration not stated) [Crufomate] | 10.5 min
Cn1sc(Cl)cc1=O [CMI (5-Chloro-2-methyl-4-isothiazolin-3-on)] | 4.51 min
O=C(NC12CC3CC(CC(C3)C1)C2)c1nn(Cc2ccc(F)cc2)c2ccccc12 [FUB-AKB48] | 13 min
C=C1CC(=CC)C(=O)OC2CCN3CC=C(COC(=O)C1(C)O)C23 (configuration not stated) [Seneciphylline] | 4.17 min
CC(C)N(Cc1ccccc1)C(=O)C(C)(C)C [Tebutame] | 10.2 min
CCOP(=S)(OCC)Oc1ccc(Cl)cc1Cl [Dichlofenthion] | 12.6 min
CNC(=O)CSP(=S)(OC)OC [Dimethoate] | 5.23 min
CNC(=O)Oc1ccccc1C(C)C [Isoprocarb] | 8.12 min
O=S(=O)(O)c1ccc2nc(-c3ccccc3)[nH]c2c1 [Phenylbenzimidazole sulfonic acid] | 4.63 min
Cn1nnc2ccccc21 [Benzotriazole -1-Methyl] | 5.11 min
CC1=C(C(=O)O)N2C(=O)C(NC(=O)C(N)c3ccc(O)cc3)C2SC1 (configuration not stated) [Cefadroxil] | 2.84 min
CN1CCN2c3ncccc3Cc3ccccc3C2C1 (configuration not stated) [Mirtazapine] | 5.29 min
CN(C)CCOC1=Cc2ccccc2Sc2ccc(Cl)cc21 [Zotepine] | 9.04 min
CC12CCC3c4ccc(O)cc4CCC3C1CCC2=O (configuration not stated) [E1 (1-3-5(10)-estratrien-3-ol-17-one estrone)] | 9.56 min
CCOP(=S)(OCC)Oc1cnc2ccccc2n1 [Quinalphos] | 10.8 min
CCC(C)Nc1c([N+](=O)[O-])cc(C(C)(C)C)cc1[N+](=O)[O-] (configuration not stated) [Butralin] | 13 min
Nc1nc(N)nc(N)n1 [Melamine] | 1.45 min
COP(=S)(OC)Oc1c(Cl)cc(C)cc1Cl [Tolclofos-methyl] | 11.4 min
CNC(=O)C(=NOC)c1ccccc1COc1cc(C)ccc1C [Dimoxystrobin] | 10.7 min
CC(O)(CS(=O)(=O)c1ccc(F)cc1)C(=O)Nc1ccc(C#N)c(C(F)(F)F)c1 (configuration not stated) [Bicalutamide] | 8.71 min
